The test system of series [1] is IL-1β. Kind of series: IL-1β inhibitory activity. It counts as cell-based.
In series [2] the test system is IFNgamma. Kind of series: IFNgamma secretion assay in human PBMCs (PHA-M, ELISA). It counts as cell-based. The settings on record: for EC50: read-out: Inhibitory Activity EC50, IFNγ. The procedure:
Fetal bovine serum (FBS) was obtained from ThermoFisher (Cat #16000044). • Other reagents: 96 well TC plates were obtained from ThermoFisher (Cat #07-2000-90).
IFN-gamma was assessed using a standard ELISA protocol. Cryopreserved PBMCs were thawed in a water bath and transferred to 50 mL polypropylene tubes. The cells were washed two times with 25 mL of RPMI medium supplemented with 5% of regular FBS and re-suspended at a density of 1.5^^6 cells/mL. The cells were plated into 96 well TC late (100 uL/well). Serially diluted compound was added to the cells in duplicate wells for each concentration. Control wells received DMSO only (0.3% final). The cells were pre-incubated with compound for 2 hr. After pre-incubation, the cells were stimulated by PHA-M (10 ug/mL) for 40 hr. Control samples with and without PHA-M in the absence of compound were assembled in each test plate. IFNg was detected in media supernatants by using a sandwich anti-IFNg ELISA kit (BD Biosciences) according to protocol provided by the manufacturer. ELISA readout (optical density at 450 nm) is commensurable with the amount of IFNg produced by the cells. Assay window was determined in each experiment by comparing average OD450 values in stimulated and un-stimulated samples in the absence of compound. ELISA calibration was performed in each detection plate using serially diluted recombinant human IFN gamma, to ensure that OD450 values for all test samples were within linear range of detection. %-Inhibition by compound was calculated using following equation:
where OD450100% is optical density in control samples stimulated with PHA-M without compound, OD4500% is optical density in unstimulated control samples, and OD450compound is optical density in a sample stimulated with PHA-M in the presence of compound.
The calculated %-Inh values were plotted against compound concentration. To determine IC50 values, dose-response curves were fitted by a 4-parameter sigmoid inhibition model using XLFit® software (IDBS).
(In general: In an ELISA, binding on a coated surface is turned into a signal by an enzyme label.)

Series [3] relates to HL-60 acute promyelocytic leukemia cell line. Kind of series: HL-60 cell line toxicity (Cell titer Glo viability). To be noted: HL-60, 72 h. Here is the method: The half maximal inhibition concentration (IC50) for each compound was determined by harvesting cells during the logarithmic growth period and then counting cell number using hemocytometer. […] Then, using a Biomek FX, test articles were serially diluted (10 mM top, 3× dilution intervals) along with a reference inhibitor (1 mM top, 3× dilution intervals) in acoustic grade Labcyte plate. Then, using an acoustic dispenser (Labcyte550), compounds were added as serially diluted to plate with cells: 90 nL of serially diluted compounds per well. 90 nL DMSO is added to control wells. Test plates were incubated for 72 h in the humidified incubator at 37° C. with 5% CO2. 25 μL of reconstituted Cell titer Glo reagent was added to each well. Each test plate was then incubated for 20 min at room temperature. Luminescence was then recorded using Synergy Neo2Multi-mode Reader.
In order to calculate intersect IC50, a dose-response curve was fitted using nonlinear regression model with a sigmoidal dose response.
The formula for calculating surviving rate is shown below, and the intersect IC50 was calculated according to the dose-response curve generated by the software:
The compounds of interest were assessed cell viability in the HL-60 acute promyelocytic leukemia cell line (ATCC® CCL-240). […] Culture medium were purchased from ATCC, USA.
A general note: In ATP-based viability assays light output follows the ATP content of the culture.

Series [4] concerns PC3 prostate adenocarcenoma cell line. Kind of series: PC3 cell line toxicity (Cell titer Glo viability). To be noted: PC3, 72 h. Type of series: cell-based. Here is the method: 90 nL DMSO is added to control wells. […] Luminescence was then recorded using Synergy Neo2Multi-mode Reader.
Culture medium were purchased from ATCC, USA.

[5] abbreviates: PBMC, human PBMCs, PHA-M 10 ug/mL 40 hr.

Read-outs that look alike come from different tables or passages of the source.

Turning to `CCCCCc1cc(OC(C)=O)c(C/C=C(\C)CCC=C(C)C)c(O)c1OC(C)=O` [Formula XLIII], the half-maximal effective concentration (EC50) (as a rule, the concentration that produces a half-maximal response) in series [1] was found to be 890 nM; in series [2] (setting [5]) it was 1130 nM.

As to `CCCCCc1cc(OC)c(C/C=C(\C)CCC=C(C)C)c(O)c1OC` [Formula XLII], the EC50 was over 10000 nM in series [1] and 4100 nM in series [2] (setting [5]).

Regarding `CCCCCC1=C(NC)C(=O)C(C/C=C(\C)CCC=C(C)C)=C(O)C1=O` [Formula XLI], the concentration giving a half-maximal response (EC50) in series [1] turned out to be 120 nM; in series [2] (setting [5]) it was 2510 nM.

Take `CCCCCc1cc(O)c(C/C=C(\C)CCC=C(C)C)c(O)c1O` [Formula XXXIX]: the EC50 in series [1] was determined as 890 nM; in series [2] (Homo sapiens, PBMC, 40 h), 1850 nM.

In the case of Cannabigerol Quinone [Formula VI], the “higher tolerance of HL-60 cells to the compound than staurosporine” value in series [3] is given as “more than 1,500 fold”. Moreover, the “Cell Viability (%)” value in series [3] (0.00017 uM) was 102.3%; in series [3] (0.00051 uM), 113.4%; in series [3] (0.0015 uM), 91.6%; in series [3] (0.0046 uM) it was 94.0%; in series [3] (0.014 uM) it was 94.1%; in series [3] (0.041 uM), 83.6%. The “Cell Viability (%)” value in series [3] (0.12 uM) is listed as 85.1%; in series [3] (0.37 uM), 91.3%; in series [3] (1.1 uM), 91.3%; in series [3] (3.3 uM) it was 97.8%; in series [3] (10 uM) it was 81.9%; in series [3] (30 uM) it was 61.5%. Moreover, the “Cell Viability (%)” value stood at 97.4% in series [4] (0.00017 uM); 100.9% in series [4] (0.00051 uM); 96.0% in series [4] (0.0015 uM); 96.9% in series [4] (0.0046 uM); 96.5% in series [4] (0.014 uM); 95.9% in series [4] (0.041 uM). The “Cell Viability (%)” value came to 96.0% in series [4] (0.12 uM); 97.7% in series [4] (0.37 uM); 94.0% in series [4] (1.1 uM); 94.6% in series [4] (3.3 uM); 91.2% in series [4] (10 uM); 84.5% in series [4] (30 uM). Also, the concentration for a half-maximal effect (EC50) in series [3] (read-out: EC50 (cell viability)) is over 30000 nM; in series [1], 5300 nM; in series [2] (human PBMCs, PHA-M 10 ug/mL 40 hr), 910 nM; in series [4], over 30000 nM. In series [2], the “stronger inhibition of IFNγ compared to Cox-2” value was “over 60 fold”. Moreover, the “higher tolerance of PC3 cells to the compound than staurosporine” value in series [4] was “more than 10,000 fold”.
